“Also recorded” adds a separate entry of the source. Where two headings read alike, the source gives them in different places.
Key:
[1] = tested on: glucoronidation of DMXAA; conditions: diclofenac 100 μM; mouse and human microsomes; cited from earlier work
[2] = tested on: 6-methylhydroxylation of DMXAA; conditions: diclofenac 100 μM; mouse and human microsomes; cited from earlier work
[3] = cited from earlier work
[4] = DMXAA plasma pharmacokinetic studies (HPLC assay); type: in vivo, mice
Procedure: (§1) DMXAA was synthesized as the sodium salt (Rewcastle et al (1990) Journal of National Cancer Institute 82:528-529). DMXAA sodium salt was dissolved in sterile water and 25 mg/kg in a volume of 0.1 ml per 10 g body weight was injected intraperitoneally (i.p.) into mice.
Diclofenac (Sigma) was dissolved in dimethylsulphoxide, and was injected i.p. into mice in a volume of 25 μl per 10 g body weight. The required dose of diclofenac was injected concurrently with DMXAA.

[5] = tested on: colon 38 tumours; experiment: Tumour growth delay assay; type: in vivo, C57B1/6 mice
Procedure: C57B1/6 mice from the Animal Resource Unit, University of Auckland, were bred and housed under conditions of constant temperature and humidity, with sterile bedding and food, according to institutional ethical guidelines. All mice were aged between 8 and 12 weeks.
as §1
Diclofenac (Sigma) was dissolved in dimethylsulphoxide, and was injected i.p. into mice in a volume of 25 μl per 10 g body weight. […]
Colon 38 tumour fragments (˜1 mm^3) were implanted subcutaneously (s.c.) in the left flank of anaesthetized (sodium pentobarbital, 81 mg/kg) mice. […] Tumour-bearing mice were treated with drugs according to the administration schedule described before, and the tumours measured using calipers, three times weekly thereafter. Tumour volumes were calculated as 0.52a^2b, where a and b are the minor and major axes of the tumour, respectively. The arithmetic means were calculated for each time point, counting cured tumours as zero volume. The growth delay was determined as the difference in the number of days required for the control versus treated tumours to increase four times in volume. […]

[6] = tested on: human tumours; conditions: Phase I clinical trials; well-tolerated doses; cited from earlier work
[7] = tested on: tumours or human tumour xenografts; conditions: preclinical studies; cited from earlier work

effect on DMXAA plasma concentrations ([4]; 3 hours after administration, DMXAA 25 mg/kg with diclofenac doses below 100 mg/kg) | AUC ([4]; mouse, plasma, ip, 0-6 hours, DMXAA 25 mg/kg i.p. alone or with diclofenac 5 mg/kg) [µM·h] | half-life ([4]; mouse, plasma, ip, DMXAA 25 mg/kg i.p. alone or with diclofenac 5 mg/kg) [h] | SMILES | inhibition of glucoronidation of DMXAA [1] [%] | inhibition of 6-methylhydroxylation of DMXAA [2] [%] | increase in the plasma DMXAA AUC ([3]; diclofenac 100 mg/kg i.p., female mice) [%] | increase in DMXAA T1/2 ([3]; diclofenac 100 mg/kg i.p., male and female mice, P<0.05) | increase in the plasma DMXAA AUC ([3]; diclofenac 100 mg/kg i.p., male mice) [%] | increase in the plasma concentration and AUC of DMXAA ([3]; diclofenac 100 mg/kg, mice) | effect on the growth of colon 38 tumours ([5]; diclofenac alone 5 mg/kg i.p.) | tumour blood flow (dynamic MRI) [6] | tumour blood flow [7] | mice cured ([5]; s.c. colon 38 tumours, DMXAA 25 mg/kg alone or with diclofenac 5 mg/kg i.p., 5 mice per group)
no significant effect | – | – | O=C(O)Cc1ccccc1Nc1c(Cl)cccc1Cl [diclofenac, 2-[(2,6-dichlorophenyl)amino]benzeneacetic acid] | > 70 | > 54 | 31 | threefold increase | 24 | 24-31% | no significant effect | – | – | –
– | 1330 | 2.7 | Cc1ccc2c(=O)c3cccc(CC(=O)O)c3oc2c1C [DMXAA, 5,6-dimethylxanthenone-4-acetic acid] | – | – | – | – | – | – | – | significant reduction in tumour blood flow | prolonged inhibition of tumour blood flow | none of the mice were cured; also recorded: no cure

From US7462642B2, “Anti-cancer combinations” (Cancer Research Technology Limited, priority 2003, dated 2008)
